Series [1] concerns the target T1, Beta-secretase 1 (Homo sapiens, UniProt P56817). In words: Inhibition of BACE1 assessed as amyloid beta secretion by cell based assay.
For series [2], the target named is T1, Beta-secretase 1. In words: Binding affinity to BACE1 at 2 mM by surface plasmon resonance assay. On the technique in general: SPR reads the build-up and loss of mass on a sensor chip optically.
The nature of series [3]: Genotoxicity in Salmonella Typhimurium by Ames test. In kind it is toxicity. Particulars: salmonella enterica subsp. enterica serovar typhimurium. (In general: In the Ames test, an excess of revertant colonies over the control signals mutagenicity.)
Series [4] can be described thus: Genotoxicity in Salmonella Typhimurium by Ames test in presence of S9 liver microsomes. Particulars: salmonella enterica subsp. enterica serovar typhimurium. The class given is toxicity, Microsome.
Series [5] deals with Voltage-gated inwardly rectifying potassium channel KCNH2 (Homo sapiens, UniProt Q12809). The series is described as follows: Inhibition of human ERG.
Voltage-gated inwardly rectifying potassium channel KCNH2, sequence (Q12809 whole entry): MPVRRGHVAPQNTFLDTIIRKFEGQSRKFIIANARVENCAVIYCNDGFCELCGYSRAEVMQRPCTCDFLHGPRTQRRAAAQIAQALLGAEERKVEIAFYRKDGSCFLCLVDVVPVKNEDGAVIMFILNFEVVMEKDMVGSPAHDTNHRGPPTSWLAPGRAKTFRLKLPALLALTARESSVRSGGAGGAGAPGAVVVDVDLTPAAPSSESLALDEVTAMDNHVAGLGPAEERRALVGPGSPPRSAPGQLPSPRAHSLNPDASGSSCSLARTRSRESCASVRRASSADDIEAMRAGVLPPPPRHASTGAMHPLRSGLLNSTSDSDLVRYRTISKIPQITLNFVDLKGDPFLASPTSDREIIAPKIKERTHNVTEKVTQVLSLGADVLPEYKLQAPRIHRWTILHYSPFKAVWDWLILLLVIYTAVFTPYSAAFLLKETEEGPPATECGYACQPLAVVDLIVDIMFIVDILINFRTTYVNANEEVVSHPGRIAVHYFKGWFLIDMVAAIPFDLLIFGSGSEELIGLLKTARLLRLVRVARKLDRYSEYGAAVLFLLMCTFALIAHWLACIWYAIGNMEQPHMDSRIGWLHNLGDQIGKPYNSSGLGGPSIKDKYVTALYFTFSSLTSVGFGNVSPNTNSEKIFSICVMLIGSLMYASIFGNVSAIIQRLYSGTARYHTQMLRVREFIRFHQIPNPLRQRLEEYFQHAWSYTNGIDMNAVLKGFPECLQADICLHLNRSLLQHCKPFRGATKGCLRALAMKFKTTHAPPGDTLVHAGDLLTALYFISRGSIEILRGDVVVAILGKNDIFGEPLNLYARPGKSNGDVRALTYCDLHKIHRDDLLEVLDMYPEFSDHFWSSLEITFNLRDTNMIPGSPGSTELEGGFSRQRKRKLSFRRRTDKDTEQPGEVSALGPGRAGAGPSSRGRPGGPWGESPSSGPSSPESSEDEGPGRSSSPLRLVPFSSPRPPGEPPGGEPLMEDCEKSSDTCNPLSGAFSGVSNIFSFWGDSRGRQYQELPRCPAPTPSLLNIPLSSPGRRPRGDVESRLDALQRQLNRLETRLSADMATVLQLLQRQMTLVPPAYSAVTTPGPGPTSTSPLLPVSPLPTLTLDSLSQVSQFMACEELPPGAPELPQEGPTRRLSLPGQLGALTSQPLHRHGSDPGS
The target in a further series is Cathepsin D (Homo sapiens, UniProt P07339). In words: Inhibition of cathepsin D.
Cathepsin D, sequence (P07339 65-162 limits assumed): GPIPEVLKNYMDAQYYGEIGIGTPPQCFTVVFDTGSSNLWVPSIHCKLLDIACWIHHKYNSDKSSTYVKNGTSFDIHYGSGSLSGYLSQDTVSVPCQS
Cathepsin D, sequence (P07339 169-412 limits assumed): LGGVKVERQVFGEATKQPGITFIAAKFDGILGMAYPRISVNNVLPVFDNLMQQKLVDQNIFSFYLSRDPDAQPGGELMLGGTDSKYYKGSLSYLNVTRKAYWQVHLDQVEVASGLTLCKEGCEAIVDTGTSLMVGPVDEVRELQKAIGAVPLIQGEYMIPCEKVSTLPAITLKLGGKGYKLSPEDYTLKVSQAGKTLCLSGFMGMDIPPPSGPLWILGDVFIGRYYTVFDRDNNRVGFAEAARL
A further series deals with T2, Beta-secretase 2 (Homo sapiens, UniProt Q9Y5Z0).
T2 sequence (Q9Y5Z0 whole entry): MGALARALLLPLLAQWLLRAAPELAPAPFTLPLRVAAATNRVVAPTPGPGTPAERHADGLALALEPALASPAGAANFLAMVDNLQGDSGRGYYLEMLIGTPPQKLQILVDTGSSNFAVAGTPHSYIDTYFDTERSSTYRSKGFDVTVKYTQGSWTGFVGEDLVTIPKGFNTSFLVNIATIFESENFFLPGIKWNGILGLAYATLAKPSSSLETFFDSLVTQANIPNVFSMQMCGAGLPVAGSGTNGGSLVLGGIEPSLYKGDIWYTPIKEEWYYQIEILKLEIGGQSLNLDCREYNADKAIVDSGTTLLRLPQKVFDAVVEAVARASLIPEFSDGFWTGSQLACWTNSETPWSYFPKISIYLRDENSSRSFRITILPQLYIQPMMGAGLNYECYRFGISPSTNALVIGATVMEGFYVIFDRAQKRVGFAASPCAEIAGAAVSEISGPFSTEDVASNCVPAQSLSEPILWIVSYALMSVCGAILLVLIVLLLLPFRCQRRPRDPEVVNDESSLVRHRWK
The series is described as follows: Inhibition of human BACE2.

The nature of series [6]: Half life in human liver microsomes. The class given is ADME, Microsome. (Microsomes from liver hold many membrane-bound enzymes, among them those of drug oxidation.)
The nature of series [7]: Half life in rat liver microsomes. The class given is ADME, Microsome.
A short description of series [8]: Maximum drug flux by PAMPA. In kind it is ADME.

The results in this text go back to ChEMBL document CHEMBL1221253, “Fragment-based discovery and optimization of BACE1 inhibitors” (Bioorg Med Chem Lett, 2010).

The structures appear in SMILES notation.

T1 sequence (P56817 whole entry): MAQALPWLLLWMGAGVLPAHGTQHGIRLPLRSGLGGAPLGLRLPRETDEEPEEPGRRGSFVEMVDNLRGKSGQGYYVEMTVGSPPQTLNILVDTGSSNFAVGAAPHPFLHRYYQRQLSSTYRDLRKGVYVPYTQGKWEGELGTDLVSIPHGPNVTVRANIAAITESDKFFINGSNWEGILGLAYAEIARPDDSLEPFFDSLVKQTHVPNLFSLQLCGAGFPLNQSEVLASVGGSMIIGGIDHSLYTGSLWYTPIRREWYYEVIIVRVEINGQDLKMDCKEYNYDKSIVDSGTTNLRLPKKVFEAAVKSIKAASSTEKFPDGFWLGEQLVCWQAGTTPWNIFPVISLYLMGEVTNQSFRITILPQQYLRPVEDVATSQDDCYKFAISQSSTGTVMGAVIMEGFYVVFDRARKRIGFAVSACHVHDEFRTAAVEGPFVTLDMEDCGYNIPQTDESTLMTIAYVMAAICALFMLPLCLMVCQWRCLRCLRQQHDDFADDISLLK

Turning to `CC[C@@H](CC(=O)NCCC1CCNC1)n1c(N)nc2cc(Cl)ccc21` (stereo not given in full), the IC50 at Beta-secretase 1 [1] amounted to 270 µM.
As for `Nc1nc2cc(Cl)ccc2n1CCCC(=O)NCCC1CCNC1` (stereo not given), at Beta-secretase 1 [1], the IC50 was 444 µM.
Take `Nc1nc2ccc(Cl)cc2[nH]1`: at Beta-secretase 1 [2], the inhibition came to 34%. Further, the IC50 at Beta-secretase 1 [1] came to 731 µM.
As to `c1cnc2ncc(-c3ccncc3)n2c1`, at Beta-secretase 1 [2], the inhibition worked out at 20%. In addition, the IC50 on Beta-secretase 1 [1] is 1010 µM.
Take `CC[C@@H](CC(=O)N(C)CC1CCCCC1)n1c(N)nc2cc(Cl)ccc21`: the IC50 on Beta-secretase 1 [1] was 375 µM.
The same measure, in the same setting: as for `CC[C@@H](CC(=O)NCCN1CCOCC1)n1c(N)nc2cc(Cl)ccc21`, the figure is 440 µM.
Same read-out and setting: the same measure for `Nc1nc2cc(Cl)ccc2n1CCCC(=O)NCC1CC1`: 2850 µM; for `CC[C@@H](CC(=O)NCc1cccc(F)c1)n1c(N)nc2cc(Cl)ccc21`: 340 µM; for `CC[C@@H](CC(=O)NCC1CC1)n1c(N)nc2cc(Cl)ccc21`: 243 µM.
As to `Nc1nc2cc(Cl)ccc2n1CCCO`, the inhibition on Beta-secretase 1 [2] is 63%. In addition, the IC50 at Beta-secretase 1 [1] worked out at 770 µM.
In the case of `CC[C@@H](CC(=O)N[C@H](COC(C)(C)C)C(=O)OC)n1c(N)nc2cc(Cl)ccc21`, at Beta-secretase 1 [1], the IC50 is 75 µM.
Same read-out and setting: the same measure for `CC(C)C[C@@H](CC(=O)NCc1cccc(F)c1)n1c(N)nc2cc(Cl)ccc21`: 54 µM; for `Nc1nc2cc(Cl)ccc2n1CCCC(=O)NCc1cccc(F)c1`: 249 µM; for `CN(Cc1cccc(F)c1)C(=O)CCCn1c(N)nc2cc(Cl)ccc21`: 194 µM.
The same measure, in the same setting: as for `CN1CCC(NC(=O)CCCn2c(N)nc3cc(Cl)ccc32)CC1`, the figure is 325 µM.
At Beta-secretase 1 [2], `O=C1c2ccccc2C(=O)C1(O)O` yielded an inhibition of 27%. Moreover, at Beta-secretase 1 [1], the IC50 was determined as 776 µM.
On to `CC[C@@H](CC(=O)NCCC(C)(C)C)n1c(N)nc2cc(Cl)ccc21`, for which the IC50 on Beta-secretase 1 [1] stood at 95 µM.
Same read-out and setting: as for `CC[C@@H](CC(=O)NCc1ccc(F)cc1)n1c(N)nc2cc(Cl)ccc21`, the figure is 264 µM; as for `Nc1nc2cc(Cl)ccc2n1CCCC(=O)NCC1CCCCC1`, 83 µM.
On to `CC(C)C[C@@H](CC(=O)NC(C)C)n1c(N)nc2cc(Cl)ccc21`, for which, at Beta-secretase 1 [1], the IC50 turned out to be 246 µM.
The same measure, in the same setting: the same measure for `Nc1nc2cc(Cl)ccc2n1CCCC(=O)NCCN1CCOCC1`: 827 µM; for `CC[C@H](CC(=O)NCc1ccccc1)n1c(N)nc2cc(Cl)ccc21`: 516 µM; for `CC[C@@H](CC(=O)NCC1CCOCC1)n1c(N)nc2cc(Cl)ccc21`: greater than 1000 µM.
Same read-out and setting: as for `CC(C)C[C@@H](CC(=O)NCc1ccccn1)n1c(N)nc2cc(Cl)ccc21`, the figure is 235 µM.
In the case of `COn1c(-c2ccccc2)nc2ncccc21`, the inhibition on Beta-secretase 1 [2] amounted to 36%. In addition, the IC50 on Beta-secretase 1 [1] turned out to be 928 µM.
Consider `CC(C)NC(=O)CCCn1c(N)nc2cc(Cl)ccc21`, for which the IC50 at Beta-secretase 1 [1] was determined as 193 µM.
Still for that read-out and setting: as for `CC[C@@H](CC(=O)N[C@@H](COC(C)(C)C)C(=O)OC)n1c(N)nc2cc(Cl)ccc21`, the figure is 168 µM.
Turning to `CC[C@@H](CC(=O)NCC1CCCCC1)n1c(N)nc2cc(Cl)ccc21`, the Activity result in series [3] is recorded as “Non-toxic”; in series [4], “Non-toxic”; in [8] it was 12%. Also, the half-maximal inhibitory concentration (IC50) in series [5] is 7.5 µM; against Cathepsin D it was 42 µM; against Beta-secretase 2 it was 8 µM. Besides, the figures for the half-life in series [6] and in [7] were 5.5 min and 6.7 min, respectively.
In the case of `CC[C@@H](CC(=O)NCc1ccccn1)n1c(N)nc2cc(Cl)ccc21`, on Beta-secretase 1 [1], the IC50 was greater than 1000 µM.
Take `Nc1nc2cc(Cl)ccc2n1CCCC(=O)NCc1ccccc1`: the IC50 at Beta-secretase 1 [1] is 1400 µM.
On the same count and under the same terms, as for `CC[C@@H](CC(=O)NC(C)C)n1c(N)nc2cc(Cl)ccc21`, the figure is 695 µM; as for `Nc1nc2cc(Cl)ccc2n1CCCC(=O)NCc1ccccn1`, 426 µM.
Take `Clc1cccc(-c2cnc3ncccn23)c1`: at Beta-secretase 1 [2], the inhibition amounted to 29%. Also, the IC50 on Beta-secretase 1 [1] came to 862 µM.
For the compound `CN(CC1CCCCC1)C(=O)CCCn1c(N)nc2cc(Cl)ccc21`, at Beta-secretase 1 [1], the IC50 worked out at 59 µM.
Same read-out and setting: as for `CC[C@@H](CC(=O)NCc1ccccc1)n1c(N)nc2cc(Cl)ccc21`, the figure is 72 µM; as for `CC(C)C[C@H](CC(=O)NC(C)C)n1c(N)nc2cc(Cl)ccc21`, greater than 1000 µM.
The same measure, in the same setting: as for `CC[C@@H](CC(=O)N[C@@H](COC(C)(C)C)C(=O)O)n1c(N)nc2cc(Cl)ccc21`, the figure is 87 µM.

By IC50 is commonly meant the midpoint of a concentration-inhibition curve. A word on the inhibition: it is the share of the control response that was lost under treatment. A low value points to little suppression. By half-life is commonly meant how long it takes for the measured level to halve. A low value points to fast loss.
